Test results as given in US20260028584A1, “METHOD FOR EVALUATING AGGREGATION-SUPPRESSING ACTIVITY OR AGGREGATION-PROMOTING ACTIVITY ON AGGREGATING PROTEIN USING ORGANOID, AND METHOD FOR PRODUCING ORGANOID” (KANEKA CORPORATION, priority 2023, published 2026).

Target: T1, amyloid β protein (QD-Aβ / Aβ42) deposited on and/or in cerebral organoid (Homo sapiens, UniProt P05067)
T1 construct: To a reagent bottle of Aβ1-42 0.5 mg (manufactured by Peptide Institute, Inc.: Cat No. 4394v); purchased Peptide Institute, Inc. 4394v; host or cells: synthetic peptide, added to the culture of a cerebral organoid derived from human iPS cells (HPS08554)
T1 sequence (P05067 672-713): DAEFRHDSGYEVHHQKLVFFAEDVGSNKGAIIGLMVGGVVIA
Test: Aβ deposition suppression on cerebral organoid with quantum dot-modified amyloid β (QD-Aβ), fluorescence image analysis
Assay type: cell-based
Conditions: rosmarinic acid 50 μM; QD-Aβ 30 nM, artificial Aβ 10 μM; human iPS cell-derived cerebral organoid; 24 hours at 37° C.
Method: An end of a tip for 1000 μL was cut with sterilized scissors, and the organoid grown to a diameter of 1 mm or larger prepared in Example 1 was sucked so as not to collapse, and transferred to a U-bottom 96-well plate. […]
The next day, the culture supernatant was completely removed so as not to suck the organoid, and after 150 μL of a fresh NbM medium was added, the cultured organoid was observed and photographed using a fluorescence microscope.
Using a fluorescent microscope (BZ-X800 manufactured by Keyence Corporation), the cultured organoid in Example 2 was photographed in a bright field at high resolution with an exposure time of 1/500 s to 1/2000 s, or at high sensitivity with an exposure time of 1/2000 s to 1/5000 s, using a Z stack with 20 μm intervals. […] Thereafter, in order to observe the deposition of quantum dot-modified amyloid β on the cultured organoid, red fluorescence was observed using a TRITC lens at high sensitivity with an exposure time of ¼ s to 1/8.5 s, and images were obtained according to the above procedure.
Each of the images obtained above was analyzed as follows. Specifically, the hybrid cell count function was used to read the organoid images used in the various tests, select the bright field, and then set the extraction selection to OFF. The threshold of the read bright-field images was set to 200, and the organoid area was calculated (organoid surface area). […]

Aβ deposition suppression rate: less than 5.0%
SMILES: O=C(/C=C/c1ccc(O)c(O)c1)O[C@H](Cc1ccc(O)c(O)c1)C(=O)O [rosmarinic acid, Rosmarinic acid]
